Source: US11623924B2, “Modulators of alpha-1 antitrypsin” (Vertex Pharmaceuticals Incorporated, priority 2018, dated 2023)

Biological target: T1, NL20 human bronchial epithelial cells expressing human Z-AAT (Homo sapiens, UniProt P01009, E366K)
T1 construct: expressed in transfected cells; host or cells: NL20 human bronchial epithelial cells (NL20-SI line, doxycycline added)
Assay: AAT Function Assay (MSD Assay NL20-SI Cell Line)
Format: cell-based
Conditions: functionally active AAT (AAT-hNE complex) in supernatant of NL20 cells expressing human Z-AAT; read-out: NL20 Func. (EC50)
Description: A. AAT Function Assay (MSD Assay NL20-SI Cell Line)
Alpha-1 antitrypsin (AAT) is a SERPIN (serine protease inhibitor) that inactivates enzymes by binding to them covalently. This assay measured the amount of functionally active AAT in a sample in the presence of the disclosed compounds 1-215 by determining the ability of AAT to form an irreversible complex with human neutrophil Elastase (hNE). In practice, the sample (cell supernatant, blood sample, or other) was incubated with excess hNE to allow AAT-Elastase complex to be formed with all functional AAT in the sample. This complex was then captured to a microplate coated with an anti-AAT antibody. The complex captured to the plate was detected with a labeled anti-Elastase antibody and quantitated using a set of AAT standards spanning the concentration range present in the sample. Meso Scale Discovery (MSD) plate reader, Sulfo-tag labeling, and microplates were used to provide high sensitivity and wide dynamic range.
• 1. Harvest NL20 human bronchial epithelial cells expressing human Z-AAT in OptiMEM™ containing Pen/Strep (P/S) • 2. Seed at 16,000 cells/well in 30 μL (384 well plate) • 3. Centrifuge plates briefly up to speed (1200 rpm) and place into 37° C. incubator overnight Day 2: Compound Addition and Coating Plates with Capture Antibody Compound Addition: • 1. Dispense 40 μL of OptiMEM™ (P/S) with doxycycline (1:1000 stock=0.1 μM final) to each well of the compound plate using a multidrop Combi in hood • 2. Remove cell plate from incubator, flip/blot and take immediately to Bravo to transfer compounds • 3. Return plates to incubator overnight Coat MSD Plates • 1. Dilute capture antibody (Polyclonal Goat anti-AAT) to 5 μg/mL (1:200) in PBS (no BSA). • 2. Dispense 25 μL of diluted capture antibody into all wells of MSD 384-well High Bind plate using the Multidrop equipped with a standard cassette. • 3. Incubate overnight at 4° C. Prepare Blocker A (BSA) Solutions • 1. Prepare solution of 5% MSD Blocker A (BSA) following the manufacturer's instructions. • 2. Further dilute the 5% MSD Blocker A in PBS to 1% (Blocker A) as needed. Day 3: Run MSD Assay
Block Plates • 1. Wash plate 1× with 50 μL Wash buffer (PBS+0.5% Tween 20), and adds 35 μL 5% Block A buffer to block non-specific binding on washer dispenser • 2. Rotate plates on shaker for 1 hour at 600 rpm
Prepare M-AAT Standards • 1. Dilute M-AAT stock to 1.6 μg/mL in 1% BSA Blocker A (Stock in −70° C.); then prepare 12×1:2 serial dilutions in 1% Blocker A • 2. The top starting final concentration on MSD plate is 320 ng/mL. These dilutions correspond to a final concentration of 320, 160, 80, 40, 20, 10, 5, 2.5, 1.25, 0.625, 0.312, 0.156 ng/mL.
Dilution Plate • 1. Add 80 μL of 1% Assay buffer to all wells except columns 1/24 (standards) with Multidrop Combi • 2. Add diluted standards to columns 1 and 24 • 3. Centrifuge dilution plates 1200 rpm briefly
Cell Plate • 1. Aspirate columns which will have the standards from the cell plates in the hood using 16-pin aspirator
Prepare Human Neutrophil Elastase (hNE) • 1. Prepare 1 μg/mL Human Neutrophil Elastase by diluting in 1% Blocker A. • a. Small 100 μg vial—add 1 mL PBS (100 μg/mL) • i. This can then be diluted 1:100 in 1% Assay Buffer for a final 1 μg/mL concentration
MSD—Add hNE (20 μL/well) • 1. After the MSD plate has blocked for at least 1 hour, wash plate 1× with 50 μL Wash buffer (PBS+0.5% Tween 20) and then add 20 μL hNE to each well
Bravo—Cell Plate—Dilution Plate—MSD Plate
Using the Bravo aspirate 10 μL from the cell plate, transfer to the dilution plate (9-fold dilution)
• 1. Mix 25 μL 3×, then aspirate 5 μL, transfer to MSD plate (5-fold dilution) • 2. Mix 10 μL 3×. Total dilution is 45 fold. • 3. Shake plates at 600 rpm for 1.5 hours
Add Functional detection hNE antibody • 1. Wash plate 1× with wash buffer • 2. […]

T1 sequence (P01009 25-418 E366K): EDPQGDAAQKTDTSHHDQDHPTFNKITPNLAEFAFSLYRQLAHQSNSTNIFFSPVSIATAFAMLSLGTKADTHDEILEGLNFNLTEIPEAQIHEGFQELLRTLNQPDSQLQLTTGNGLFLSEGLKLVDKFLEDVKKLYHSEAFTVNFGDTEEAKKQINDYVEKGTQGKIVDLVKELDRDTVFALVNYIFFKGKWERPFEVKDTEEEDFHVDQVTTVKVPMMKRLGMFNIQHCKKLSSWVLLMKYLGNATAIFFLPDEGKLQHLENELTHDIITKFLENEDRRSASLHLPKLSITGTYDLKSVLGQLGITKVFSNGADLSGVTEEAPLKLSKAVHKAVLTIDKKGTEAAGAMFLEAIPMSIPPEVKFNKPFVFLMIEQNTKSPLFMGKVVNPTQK

SMILES | EC50 [µM]
C[C@]1(C(=O)O)C[C@H](c2c(C3CCOCC3)n(-c3ccc(F)cc3)c3cc4cn[nH]c4cc32)C1 (single isomer, unassigned) [Compound 115] | 1.16 to 3
Cc1cc(-n2c(C3CCOCC3)c(C3CC4(CC(C(=O)O)C4)C3)c3cc4[nH]nc(C)c4cc32)ccc1F (single isomer, unassigned) [Compound 127, 6-[5-(4-fluoro-3-methyl-phenyl)-3-methyl-6-tetrahydropyran-4-yl-1H-pyrrolo[2,3-f]indazol-7-yl]spiro[3.3]heptane-2-carboxylic acid] | < 1.16
Cc1cc(-n2c(C3CCOCC3)c(C3CC4(CC(C(=O)O)C4)C3)c3cc4[nH]nc(C)c4cc32)ccc1F (single isomer, unassigned) [Compound 128, 6-[5-(4-fluoro-3-methyl-phenyl)-3-methyl-6-tetrahydropyran-4-yl-1H-pyrrolo[2,3-f]indazol-7-yl]spiro[3.3]heptane-2-carboxylic acid] | 1.16 to 3
O=C(O)C1CC2(C1)CC(c1c(C3CCOCC3)n(-c3ccc(F)cc3)c3cc4cn[nH]c4c(F)c13)C2 (single isomer, unassigned) [Compound 136, 6-[8-fluoro-5-(4-fluorophenyl)-6-tetrahydropyran-4-yl-1H-pyrrolo[2,3-f]indazol-7-yl]spiro[3.3]heptane-2-carboxylic acid] | < 1.16
O=C(O)C1CC2(C1)CC(c1c(C3CCOCC3)n(-c3ccc(F)cc3)c3cc4cn[nH]c4c(F)c13)C2 (single isomer, unassigned) [Compound 137, 6-[8-fluoro-5-(4-fluorophenyl)-6-tetrahydropyran-4-yl-1H-pyrrolo[2,3-f]indazol-7-yl]spiro[3.3]heptane-2-carboxylic acid] | < 1.16
O=C(O)C1CC2(C1)CC(c1c(C3CCOC3)n(-c3ccc(F)cc3)c3cc4cn[nH]c4cc13)C2 (single isomer, unassigned) [Compound 141, 6-[5-(4-fluorophenyl)-6-tetrahydrofuran-3-yl-1H-pyrrolo[2,3-f]indazol-7-yl]spiro[3.3]heptane-2-carboxylic acid] | > 3
O=C(O)C1CC2(C1)CC(c1c(C3CCOC3)n(-c3ccc(F)cc3)c3cc4cn[nH]c4cc13)C2 (single isomer, unassigned) [Compound 142, 6-[5-(4-fluorophenyl)-6-tetrahydrofuran-3-yl-1H-pyrrolo[2,3-f]indazol-7-yl]spiro[3.3]heptane-2-carboxylic Acid] | > 3
CC(C)c1c(CCC(=O)OC2O[C@H](C(=O)O)[C@@H](O)[C@H](O)[C@H]2O)c2cc3[nH]ncc3cc2n1-c1ccc(F)cc1 (stereo in doubt) [Compound 173, (2S,3S,4S,5R)-6-[3-[5-(4-fluorophenyl)-6-isopropyl-1H-pyrrolo[2,3-f]indazol-7-yl]propanoyloxy]-3,4,5-trihydroxy-tetrahydropyran-2-carboxylic Acid] | > 3
CC(C)c1c(CCC(=O)N[C@@H]2C(=O)NC[C@H]2O)c2cc3[nH]ncc3cc2n1-c1ccc(F)cc1 (stereo in doubt) [Compound 211, 3-[5-(4-fluorophenyl)-6-isopropyl-1H-pyrrolo[2,3-f]indazol-7-yl]-N-[(3S,4R)-4-hydroxy-2-oxo-pyrrolidin-3-yl]propanamide] | > 3
CC(=O)N1CCC(Cc2c(C3CCOCC3)n(-c3ccc(F)cc3)c3cc4cn[nH]c4cc23)C1 (stereo in doubt) [Compound 213, 1-[(3S)-3-[[5-(4-fluorophenyl)-6-tetrahydropyran-4-yl-1H-pyrrolo[2,3-f]indazol-7-yl]methyl]pyrrolidin-1-yl]ethanone] | > 3
Cc1cc(-n2c(C(C)C)c(I)c3cc4[nH]ncc4cc32)ccc1F [Compound 1, 5-(4-fluoro-3-methyl-phenyl)-7-iodo-6-isopropyl-1H-pyrrolo[2,3-f]indazole] | 1.16 to 3
CCOC(=O)c1c(C(C)C)n(-c2ccc(F)c(C)c2)c2cc3cn[nH]c3cc12 [Compound 2, ethyl 5-(4-fluoro-3-methyl-phenyl)-6-isopropyl-1H-pyrrolo[2,3-f]indazole-7-carboxylate] | > 3
Cc1cc(-n2c(C(C)C)c(C(=O)O)c3cc4[nH]ncc4cc32)ccc1F [Compound 3, 5-(4-fluoro-3-methyl-phenyl)-6-isopropyl-1H-pyrrolo[2,3-f]indazole-7-carboxylic Acid] | 1.16 to 3
Cc1cc(-n2c(C(C)C)c(C(=O)N3CCOCC3)c3cc4[nH]ncc4cc32)ccc1F [Compound 4, [5-(4-fluoro-3-methyl-phenyl)-6-isopropyl-1H-pyrrolo[2,3-f]indazol-7-yl]-morpholino-methanone] | > 3
Cc1cc(-n2c(C(C)C)c(C(=O)N3CCN(C)CC3)c3cc4[nH]ncc4cc32)ccc1F [Compound 5, [5-(4-fluoro-3-methyl-phenyl)-6-isopropyl-1H-pyrrolo[2,3-f]indazol-7-yl]-(4-methylpiperazin-1-yl)methanone] | > 3
CCNC(=O)c1c(C(C)C)n(-c2ccc(F)c(C)c2)c2cc3cn[nH]c3cc12 [Compound 6, N-ethyl-5-(4-fluoro-3-methyl-phenyl)-6-isopropyl-1H-pyrrolo[2,3-f]indazole-7-carboxamide] | > 3
Cc1cc(-n2c(C(C)C)c(C(=O)NC3COC3)c3cc4[nH]ncc4cc32)ccc1F [Compound 7, 5-(4-fluoro-3-methyl-phenyl)-6-isopropyl-N-(oxetan-3-yl)-1H-pyrrolo[2,3-f]indazole-7-carboxamide] | > 3
Cc1cc(-n2c(C(C)C)c(N3CCCC3=O)c3cc4[nH]ncc4cc32)ccc1F [Compound 8, 1-[5-(4-fluoro-3-methyl-phenyl)-6-isopropyl-1H-pyrrolo[2,3-f]indazol-7-yl]pyrrolidin-2-one] | > 3
Cc1cc(-n2c(C(C)C)c(N3CCOCC3=O)c3cc4[nH]ncc4cc32)ccc1F [Compound 9, 4-[5-(4-fluoro-3-methyl-phenyl)-6-isopropyl-1H-pyrrolo[2,3-f]indazol-7-yl]morpholin-3-one] | > 3
Cc1cc(-n2c(C(C)C)c(C#N)c3cc4[nH]ncc4cc32)ccc1F [Compound 10, 5-(4-fluoro-3-methyl-phenyl)-6-isopropyl-1H-pyrrolo[2,3-f]indazole-7-carbonitrile] | > 3
Cc1cc(-n2c(C(C)C)c(S(C)(=O)=O)c3cc4[nH]ncc4cc32)ccc1F [Compound 11, 5-(4-fluoro-3-methyl-phenyl)-6-isopropyl-7-methylsulfonyl-1H-pyrrolo[2,3-f]indazole] | 1.16 to 3
C=Cc1c(C(C)C)n(-c2ccc(F)c(C)c2)c2cc3cn[nH]c3cc12 [Compound 12, 5-(4-fluoro-3-methyl-phenyl)-6-isopropyl-7-vinyl-1H-pyrrolo[2,3-f]indazole] | > 3
Cc1cc(-n2c(C(C)C)c(CCC(=O)O)c3cc4[nH]ncc4cc32)ccc1F [Compound 16, 3-[5-(4-fluoro-3-methyl-phenyl)-6-isopropyl-1H-pyrrolo[2,3-f]indazol-7-yl]propanoic acid] | 1.16 to 3
Cc1cc(-n2c(C(C)C)c(CC3(C(=O)O)CC3)c3cc4[nH]ncc4cc32)ccc1F [Compound 17, 1-[[5-(4-fluoro-3-methyl-phenyl)-6-isopropyl-1H-pyrrolo[2,3-f]indazol-7-yl]methyl]cyclopropanecarboxylic Acid] | < 1.16
